Experimental data: article PMC10483676 (ACS Omega, 2023)

Target: urease enzyme from the Jack bean (Canavalia ensiformis) (Canavalia ensiformis, UniProt P07374)
Test: In vitro urease assay
Assay type: biochemical

urease enzyme from the Jack bean (Canavalia ensiformis), sequence (P07374 whole entry, looked up): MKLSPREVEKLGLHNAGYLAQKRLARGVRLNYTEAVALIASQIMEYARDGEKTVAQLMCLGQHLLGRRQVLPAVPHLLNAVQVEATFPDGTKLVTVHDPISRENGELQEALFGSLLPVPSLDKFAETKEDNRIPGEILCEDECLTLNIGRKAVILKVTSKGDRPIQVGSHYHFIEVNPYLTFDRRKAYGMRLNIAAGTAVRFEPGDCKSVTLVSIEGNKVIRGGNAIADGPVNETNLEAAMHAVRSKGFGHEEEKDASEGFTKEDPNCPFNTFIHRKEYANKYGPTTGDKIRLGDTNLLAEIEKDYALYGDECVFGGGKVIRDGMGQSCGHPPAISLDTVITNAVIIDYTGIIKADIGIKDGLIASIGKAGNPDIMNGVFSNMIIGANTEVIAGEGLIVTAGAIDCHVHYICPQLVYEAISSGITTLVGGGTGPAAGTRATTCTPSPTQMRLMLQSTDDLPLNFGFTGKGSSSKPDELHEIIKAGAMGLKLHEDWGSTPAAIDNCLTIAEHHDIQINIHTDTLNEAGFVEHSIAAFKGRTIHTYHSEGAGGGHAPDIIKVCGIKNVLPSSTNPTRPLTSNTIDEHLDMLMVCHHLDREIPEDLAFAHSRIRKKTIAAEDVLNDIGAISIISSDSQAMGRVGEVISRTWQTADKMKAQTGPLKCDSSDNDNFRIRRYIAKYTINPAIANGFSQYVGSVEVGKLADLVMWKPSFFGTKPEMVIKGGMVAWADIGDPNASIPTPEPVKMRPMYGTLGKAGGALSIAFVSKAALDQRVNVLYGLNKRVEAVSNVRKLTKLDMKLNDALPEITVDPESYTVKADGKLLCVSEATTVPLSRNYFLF

COc1ccc(-c2nnc3sc(COc4ccc(O)cc4)nn23)cc1 [4b]
IC50: 25.2 ± 0.56 µM

Oc1ccccc1OCc1nn2c(-c3cccc(Br)c3)nnc2s1 [4g]
IC50: 4.5 ± 0.13 µM

Oc1ccc(OCc2nn3c(-c4cccc(Br)c4)nnc3s2)cc1 [4h]
IC50: 6.79 ± 0.24 µM

COc1ccc(C2=Nn3c(nnc3-c3ccc(OC)cc3)SC2)cc1 [5a]
IC50: 5.91 ± 0.13 µM

COc1ccc(-c2nnc3n2N=C(c2ccc(Cl)cc2)CS3)cc1 [5b]
IC50: 8.37 ± 0.16 µM

COc1ccc(-c2nnc3n2N=C(c2ccc(F)cc2)CS3)cc1 [5c]
IC50: 6.93 ± 0.14 µM

COc1ccc(-c2nnc3n2N=C(c2ccc(C)cc2)CS3)cc1 [5d]
IC50: 5.16 ± 0.14 µM

COc1ccc(-c2nnc3n2N=C(c2cccc4ccccc24)CS3)cc1 [5f]
IC50: 10.5 ± 0.26 µM

COc1ccc(-c2nnc3n2N=C(c2ccc(Cl)c(Cl)c2)CS3)cc1 [5h]
IC50: 5.3 ± 0.17 µM

COc1ccc(C2=Nn3c(nnc3-c3cccc(Br)c3)SC2)cc1 [5i]
IC50: 9.55 ± 0.41 µM

Clc1ccc(C2=Nn3c(nnc3-c3cccc(Br)c3)SC2)cc1 [5j]
IC50: 11.5 ± 0.38 µM

Cc1ccc(C2=Nn3c(nnc3-c3cccc(Br)c3)SC2)cc1 [5l]
IC50: 5.56 ± 0.12 µM

Brc1cccc(-c2nnc3n2N=C(c2cccc4ccccc24)CS3)c1 [5n]
IC50: 7.2 ± 0.18 µM

O=[N+]([O-])c1ccc(C2=Nn3c(nnc3-c3cccc(Br)c3)SC2)cc1 [5o]
IC50: 7.72 ± 0.31 µM

Clc1ccc(C2=Nn3c(nnc3-c3cccc(Br)c3)SC2)cc1Cl [5p]
IC50: 13 ± 0.37 µM

COc1ccc(-c2nnc3sc(COc4ccccc4C)nn23)cc1 [compound 4c]
IC50: 12 ± 0.25 µM

COc1ccc(-c2nnc3sc(COc4ccc(C)cc4)nn23)cc1 [compound 4d]
IC50: 39 ± 0.53 µM

Cc1ccccc1OCc1nn2c(-c3cccc(Br)c3)nnc2s1 [compound 4i]
IC50: 9.63 ± 0.32 µM

Cc1ccc(OCc2nn3c(-c4cccc(Br)c4)nnc3s2)cc1 [compound 4j]
IC50: 4.67 ± 0.15 µM

Fc1ccc(OCc2nn3c(-c4cccc(Br)c4)nnc3s2)cc1 [compound 4l]
IC50: 46.8 ± 0.63 µM

Fc1ccc(C2=Nn3c(nnc3-c3cccc(Br)c3)SC2)cc1 [compound 5k]
IC50: 3.33 ± 0.11 µM | inhibitory potential fold higher than thiourea (relative to thiourea IC50): ~6.5 fold
